The source made the active and inactive calls. The rule behind the calls is not given here.
Assays:
[1] = Inhibition of biotinylated Galectin-1/3 (unknown origin) preincubated for 30 mins at room temperature followed by incubation at 37 degC for 1 hr by surface-immobilized glycoprotein asialofetuin based solid phase assay; design: species or system Homo sapiens
[2] = biological target: Galectin-3 (Mus musculus) (UniProt P16110); assay: Inhibition of biotinylated galectin-3 binding to C57BL/6 mouse kidney medulla at 125 to 500 uM of lactose residue per molecule preincubated for 1 hr followed by incubation with tissue material for overnight by light microsocopy; type: tissue-based; details: Renal medulla, dose 125-500 µM
Sequence of Galectin-3 (Mus musculus) (P16110 whole entry): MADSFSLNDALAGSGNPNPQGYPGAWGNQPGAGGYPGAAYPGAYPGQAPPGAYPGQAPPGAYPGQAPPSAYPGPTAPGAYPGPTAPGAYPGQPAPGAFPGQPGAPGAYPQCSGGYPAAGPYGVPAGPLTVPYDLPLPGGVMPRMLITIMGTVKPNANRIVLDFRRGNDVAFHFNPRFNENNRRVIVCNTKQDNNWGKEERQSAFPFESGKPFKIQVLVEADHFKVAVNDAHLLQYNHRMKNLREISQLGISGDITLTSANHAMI

[3] = biological target: Galectin-1 (Mus musculus) (UniProt P16045); assay: Inhibition of biotinylated galectin-1 binding to C57BL/6 mouse kidney at 125 to 500 uM of lactose residue per molecule preincubated for 1 hr followed by incubation with tissue material for overnight by light microsocopy; type: tissue-based; details: dose 125-500 µM
Sequence of Galectin-1 (Mus musculus) (P16045 whole entry): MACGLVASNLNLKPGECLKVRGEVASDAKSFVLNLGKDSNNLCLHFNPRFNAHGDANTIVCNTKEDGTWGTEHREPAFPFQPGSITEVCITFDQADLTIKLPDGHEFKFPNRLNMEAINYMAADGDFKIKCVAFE

[4] = biological target: Galectin-3 (Mus musculus) (UniProt P16110); assay: Inhibition of biotinylated galectin-3 binding to C57BL/6 mouse kidney cortex at 125 to 500 uM of lactose residue per molecule preincubated for 1 hr followed by incubation with tissue material for overnight by light microsocopy; type: tissue-based; details: dose 125-500 µM
[5] = organism: Homo sapiens; assay: Inhibition of biotinylated Galectin-1/3 (unknown origin) preincubated for 30 mins at room temperature followed by incubation at 37 degC for 1 hr by surface-immobilized glycoprotein asialofetuin based solid phase assay relative to lactose; details: time 90.0 min
[6] = biological target: T1, Collagenase 3 (Homo sapiens, UniProt P45452); assay: Inhibition of MMP13 (unknown origin) assessed as reduction in cleavage of colorimetric substrate by measuring remaining activity at 10 nM incubated for 1 hr by colorimetric analysis relative to control
[7] = biological target: Galectin-1 (Homo sapiens) (UniProt P09382); assay: Inhibition of Alexa-Fluor-488 conjugated galectin-1 binding to human osteoarthritic cartilage at 4 mM of sugar preincubated for 1 hr followed by incubation with tissue material for overnight by 2-colour fluorescence microsocopy; type: tissue-based
Sequence of Galectin-1 (Homo sapiens) (P09382 whole entry): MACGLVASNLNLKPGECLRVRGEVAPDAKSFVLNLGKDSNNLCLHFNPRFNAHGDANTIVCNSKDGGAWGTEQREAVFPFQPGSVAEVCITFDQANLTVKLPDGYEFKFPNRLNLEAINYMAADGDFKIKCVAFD

[8] = biological target: Galectin-1 (Mus musculus) (UniProt P16045); assay: Inhibition of Alexa-Fluor-488 conjugated galectin-1 binding to C57BL/6 mouse kidney cortex at 2 mM of sugar preincubated for 1 hr followed by incubation with tissue material for overnight by 2-colour fluorescence microsocopy; type: tissue-based
[9] = organism: Mus musculus; assay: Inhibition of Alexa-Fluor-488 conjugated galectin-1/Alexa-Fluor-647 conjugated galectin-3 binding to C57BL/6 mouse kidney cortex at 2 mM of sugar preincubated for 1 hr followed by incubation with tissue material for overnight by 2-colour fluorescence microsocopy; type: tissue-based
[10] = biological target: Galectin-3 (Mus musculus) (UniProt P16110); assay: Inhibition of Alexa-Fluor-647 conjugated galectin-3 binding to C57BL/6 mouse kidney cortex at 2 mM of sugar preincubated for 1 hr followed by incubation with tissue material for overnight by 2-colour fluorescence microsocopy; type: tissue-based
[11] = biological target: T1, Collagenase 3; assay: Inhibition of MMP13 (unknown origin) assessed as reduction in cleavage of colorimetric substrate incubated for 1 hr by colorimetric analysis
[12] = biological target: Galectin-3 (Homo sapiens) (UniProt P17931); assay: Inhibition of Alexa-Fluor-647 conjugated galectin-3 binding to human osteoarthritic cartilage at 4 mM of sugar preincubated for 1 hr followed by incubation with tissue material for overnight by 2-colour fluorescence microsocopy; type: tissue-based
Sequence of Galectin-3 (Homo sapiens) (P17931 whole entry): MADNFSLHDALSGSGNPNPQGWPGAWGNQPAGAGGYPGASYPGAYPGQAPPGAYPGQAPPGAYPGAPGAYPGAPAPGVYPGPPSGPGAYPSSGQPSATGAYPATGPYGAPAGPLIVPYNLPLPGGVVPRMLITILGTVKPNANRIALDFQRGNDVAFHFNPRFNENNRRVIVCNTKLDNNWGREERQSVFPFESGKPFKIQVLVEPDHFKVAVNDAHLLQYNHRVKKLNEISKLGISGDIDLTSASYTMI

[13] = biological target: T1, Collagenase 3; assay: Inhibition of MMP13 (unknown origin) assessed as reduction in cleavage of colorimetric substrate by measuring remaining activity at 100 nM incubated for 1 hr by colorimetric analysis relative to control
[14] = organism: Homo sapiens; assay: Inhibition of Alexa-Fluor-488 conjugated galectin-1/Alexa-Fluor-647 conjugated galectin-3 binding to human osteoarthritic cartilage at 4 mM of sugar preincubated for 1 hr followed by incubation with tissue material for overnight by 2-colour fluorescence microsocopy; type: tissue-based
[15] = biological target: Galectin-1 (Mus musculus) (UniProt P16045); assay: Inhibition of Alexa-Fluor-488 conjugated galectin-1 binding to C57BL/6 mouse kidney medulla at 2 mM of sugar preincubated for 1 hr followed by incubation with tissue material for overnight by 2-colour fluorescence microsocopy; type: tissue-based; details: Renal medulla
[16] = biological target: T1, Collagenase 3; assay: Inhibition of MMP13 (unknown origin) assessed as reduction in cleavage of colorimetric substrate by measuring remaining activity at 1000 nM incubated for 1 hr by colorimetric analysis relative to control
[17] = organism: Mus musculus; assay: Inhibition of Alexa-Fluor-488 conjugated galectin-1/Alexa-Fluor-647 conjugated galectin-3 binding to C57BL/6 mouse medulla at 2 mM of sugar preincubated for 1 hr followed by incubation with tissue material for overnight by 2-colour fluorescence microsocopy; type: tissue-based; details: Renal medulla
[18] = biological target: Galectin-3 (Mus musculus) (UniProt P16110); assay: Inhibition of Alexa-Fluor-647 conjugated galectin-3 binding to C57BL/6 mouse medulla at 2 mM of sugar preincubated for 1 hr followed by incubation with tissue material for overnight by 2-colour fluorescence microsocopy; type: tissue-based; details: Renal medulla

Row | Molecule | IC50 [1] [µM] | inhibition [2] | inhibition [3] | inhibition [4] | Ratio [5] | inhibition [7] | IC50 [11] [µM] | inhibition [12] | inhibition [14] | also measured
1 | LACTOSE, ANHYDROUS [listing 1 of 2 here] | 1070 | – | – | – | – | – | – | – | – | –
2 | LACTOSE, ANHYDROUS [listing 2 of 2 here] | – | – | – | – | – | Active | – | Active | Active | –
3 | COc1ccc(S(=O)(=O)N(CC(=O)NO)CC(C)C)cc1 | – | – | – | – | – | – | 0.0052 | – | – | –

Further lines, with some results ahead:

Row | IC50 [1] [µM] | inhibition [2] | inhibition [3] | inhibition [4] | Ratio [5] | inhibition [7] | IC50 [11] [µM] | inhibition [12] | inhibition [14] | Molecule | also measured
4 | 220 | Active | Active | Active | 4.9 | – | – | – | – | OC[C@H]1O[C@@H](O[C@H]2[C@H](O)[C@@H](O)[C@H](n3cc(COC[C@@H](OCc4cn([C@@H]5O[C@H](CO)[C@@H](O[C@@H]6O[C@H](CO)[C@H](O)[C@H](O)[C@H]6O)[C@H](O)[C@H]5O)nn4)[C@@H](OCc4cn([C@@H]5O[C@H](CO)[C@@H](O[C@@H]6O[C@H](CO)[C@H](O)[C@H](O)[C@H]6O)[C@H](O)[C@H]5O)nn4)[C@H](OCc4cn([C@@H]5O[C@H](CO)[C@@H](O[C@@H]6O[C@H](CO)[C@H](O)[C@H](O)[C@H]6O)[C@H](O)[C@H]5O)nn4)[C@@H](COCc4ccccc4)OCc4ccccc4)nn3)O[C@@H]2CO)[C@H](O)[C@@H](O)[C@H]1O | –
5 | 200 | Active | Active | Active | 5.4 | Active | 0.0013 | Active | Active | COc1ccc(S(=O)(=O)N(CCCCCCNC(=O)CCCCC(=O)NCCN(CCC(=O)NCCNC(=O)CCCCC(=O)NCCO[C@@H]2O[C@H](CO)[C@@H](O[C@@H]3O[C@H](CO)[C@H](O)[C@H](O)[C@H]3O)[C@H](O)[C@H]2O)CCC(=O)NCCNC(=O)CCCCC(=O)NCCO[C@@H]2O[C@H](CO)[C@@H](O[C@@H]3O[C@H](CO)[C@H](O)[C@H](O)[C@H]3O)[C@H](O)[C@H]2O)CC(=O)NO)cc1 | Activity [6]: 15.2%; inhibition [8]: Active; inhibition [9]: Active; inhibition [10]: Active; Activity [13]: 3.2%; inhibition [15]: Active; Activity [16]: 2.7%; inhibition [17]: Active; inhibition [18]: Active
6 | 420 | Active | Active | Active | 2.5 | – | – | – | – | OC[C@H]1O[C@@H](O[C@H]2[C@H](O)[C@@H](O)[C@H](n3cc(COC[C@@H](OCc4cn([C@@H]5O[C@H](CO)[C@@H](O[C@@H]6O[C@H](CO)[C@H](O)[C@H](O)[C@H]6O)[C@H](O)[C@H]5O)nn4)[C@@H](O)[C@H](O)[C@@H](COCc4cn([C@@H]5O[C@H](CO)[C@@H](O[C@@H]6O[C@H](CO)[C@H](O)[C@H](O)[C@H]6O)[C@H](O)[C@H]5O)nn4)OCc4cn([C@@H]5O[C@H](CO)[C@@H](O[C@@H]6O[C@H](CO)[C@H](O)[C@H](O)[C@H]6O)[C@H](O)[C@H]5O)nn4)nn3)O[C@@H]2CO)[C@H](O)[C@@H](O)[C@H]1O | –
